Assay results from US20070259856A1, “Method for Activating Trpv4 Channel Receptors by Agonists” (priority 2004, published 2007).
One block for each molecule: values may come before it.

Legend:
[1] = target: T1, TRPV4 channel receptor (Homo sapiens, UniProt Q9HBA0); assay: FLIPR assay; assay type: cell-based
[2] = target: TRPV4 channel receptor (Rattus norvegicus, UniProt Q9ERZ8); assay: Ca2+ influx in rat articular chondrocytes (FlexStation)
[3] = tested on: aggrecanase; assay: IL-1 induced aggrecanase production, chondrocyte-based aggrecanase peptide cleavage assay; assay type: cell-based, bovine; settings: Bos taurus
Description: Aggrecanases (ADAMTSs), in conjunction with MMPs, degrade aggrecan, one of the major matrix components in articular cartilage. […] 2003; 48(1): 119-133].

[4] = target: T2, TRPV4 channel receptor (Bos taurus, UniProt A0A8F4X677); assay: Ca2+ influx in bovine articular chondrocytes (FlexStation); assay type: cell-based
T2 construct: endogenous in cells; host or cells: bovine articular chondrocytes
T2 sequence (A0A8F4X677 1-871): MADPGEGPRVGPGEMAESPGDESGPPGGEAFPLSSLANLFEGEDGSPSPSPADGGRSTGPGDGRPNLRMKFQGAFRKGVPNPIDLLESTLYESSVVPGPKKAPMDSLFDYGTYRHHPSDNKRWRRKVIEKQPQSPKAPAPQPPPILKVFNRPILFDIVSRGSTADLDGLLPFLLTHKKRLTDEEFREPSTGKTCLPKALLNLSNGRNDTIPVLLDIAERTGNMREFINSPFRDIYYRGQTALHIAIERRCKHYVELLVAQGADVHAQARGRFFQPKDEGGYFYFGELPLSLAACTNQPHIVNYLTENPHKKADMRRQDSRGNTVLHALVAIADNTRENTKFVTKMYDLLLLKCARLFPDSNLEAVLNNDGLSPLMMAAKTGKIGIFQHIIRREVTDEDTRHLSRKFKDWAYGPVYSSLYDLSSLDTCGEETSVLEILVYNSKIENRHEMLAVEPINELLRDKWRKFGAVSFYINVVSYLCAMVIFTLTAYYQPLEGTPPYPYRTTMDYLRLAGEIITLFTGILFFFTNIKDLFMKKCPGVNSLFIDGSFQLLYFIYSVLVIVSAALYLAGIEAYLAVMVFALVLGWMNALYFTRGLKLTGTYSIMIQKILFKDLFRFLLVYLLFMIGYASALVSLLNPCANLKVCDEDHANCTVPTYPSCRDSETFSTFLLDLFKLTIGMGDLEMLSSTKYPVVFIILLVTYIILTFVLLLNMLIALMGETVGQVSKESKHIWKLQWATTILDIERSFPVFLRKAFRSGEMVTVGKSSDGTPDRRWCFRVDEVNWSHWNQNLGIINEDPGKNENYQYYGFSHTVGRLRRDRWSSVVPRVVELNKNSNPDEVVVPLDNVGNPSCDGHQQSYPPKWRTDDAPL

[5] = target: T1, TRPV4 channel receptor; assay: Ca2+ influx in human articular chondrocytes (FlexStation)
[6] = target: T1, TRPV4 channel receptor; assay: Intracellular calcium (FLIPR, Fluo-3) in HEK293 cells transfected with human TRPV4 channel receptor; assay type: cell-based; parameters: V5-His (from the vector's name only); expressed in transfected cells; host or cells: HEK293; key to pEC50 TRPVR4: IA = inactive; settings: for pEC50 TRPVR4: intracellular calcium, mean ± s.e.mean, n = 3-5
Experimental: (§1) TRPV4 channel receptor cDNA was inserted into the expression vector pcDNA3.1 V5-His (Invitrogen, Carlsbad, Calif.). Wildtype HEK293 cells, or HEK293 cells transfected with the human TRPV4 channel receptor: pcDNA3.1 V5-His construct, or mock transfected cells, or bovine chondrocytes, were seeded into 96-well microtitre plates at 25,000 cells/well and cultured overnight. The cells were then incubated with 4 μM Fluo-3 (Fluo-3: Molecular Probes (Eugene, Oreg.)) for 2 hours at room temperature in the dark. Dye loaded cells were washed 4× with Tyrodes buffer: (NaCl, 145 mM; KCl, 2.5 mM; Hepes, 10 mM; Glucose, 10 mM; MgCl2, 1.2 mM; CaCl2, 1.5 mM), which also contained 0.2% BSA but not probenecid. Agonists and antagonists were also prepared in Tyrodes buffer. Cells were preincubated for 30 minutes with antagonist or buffer. Agonist addition and measurement of cytoplasmic calcium concentration was performed in the FLIPR (Smart, et al., (2000) Br. J. Pharmacol. 129, 227-230).

[7] = tested on: cells transfected with empty vector; assay: Intracellular calcium (FLIPR) in HEK293 cells transfected with empty vector; assay type: cell-based; parameters: key to pEC50 empty vector: IA = inactive; settings: for pEC50 empty vector: intracellular calcium, mean ± s.e.mean, n = 3-5
Experimental: as §1

[8] = tested on: wild type HEK293 cells; assay: Intracellular calcium (FLIPR) in wild type HEK293 cells; assay type: cell-based; parameters: key to pEC50 wild type: IA = inactive; settings: for pEC50 wild type: intracellular calcium, mean ± s.e.mean, n = 3-5
Experimental: as §1

[9] = target: T3, TRPV4 channel receptor endogenously expressed by chondrocytes (Bos taurus, UniProt A0A8F4X677); assay: Intracellular calcium (FLIPR) in bovine articular chondrocytes; assay type: cell-based
T3 construct: endogenous in cells; host or cells: bovine articular chondrocytes
T3 sequence (A0A8F4X677 1-871): as above
Experimental: as §1
The response was dependent upon extracellular calcium ions and was blocked by the channel blocker, ruthenium red.

[10] = tested on: TRPV4 channel receptors; assay: Activation of TRPV4 channel receptors in cartilage explants; assay type: cell-based, human, rat, rabbit, mouse, canine, monkey, or bovine; settings: compared with chondrocytes extracted from a cartilage matrix
[11] = target: TRPVR1 (Homo sapiens, UniProt Q8NER1); assay type: cell-based; parameters: key to pEC50 TRPVR1: IA = inactive
TRPVR1, sequence (Q8NER1 whole entry): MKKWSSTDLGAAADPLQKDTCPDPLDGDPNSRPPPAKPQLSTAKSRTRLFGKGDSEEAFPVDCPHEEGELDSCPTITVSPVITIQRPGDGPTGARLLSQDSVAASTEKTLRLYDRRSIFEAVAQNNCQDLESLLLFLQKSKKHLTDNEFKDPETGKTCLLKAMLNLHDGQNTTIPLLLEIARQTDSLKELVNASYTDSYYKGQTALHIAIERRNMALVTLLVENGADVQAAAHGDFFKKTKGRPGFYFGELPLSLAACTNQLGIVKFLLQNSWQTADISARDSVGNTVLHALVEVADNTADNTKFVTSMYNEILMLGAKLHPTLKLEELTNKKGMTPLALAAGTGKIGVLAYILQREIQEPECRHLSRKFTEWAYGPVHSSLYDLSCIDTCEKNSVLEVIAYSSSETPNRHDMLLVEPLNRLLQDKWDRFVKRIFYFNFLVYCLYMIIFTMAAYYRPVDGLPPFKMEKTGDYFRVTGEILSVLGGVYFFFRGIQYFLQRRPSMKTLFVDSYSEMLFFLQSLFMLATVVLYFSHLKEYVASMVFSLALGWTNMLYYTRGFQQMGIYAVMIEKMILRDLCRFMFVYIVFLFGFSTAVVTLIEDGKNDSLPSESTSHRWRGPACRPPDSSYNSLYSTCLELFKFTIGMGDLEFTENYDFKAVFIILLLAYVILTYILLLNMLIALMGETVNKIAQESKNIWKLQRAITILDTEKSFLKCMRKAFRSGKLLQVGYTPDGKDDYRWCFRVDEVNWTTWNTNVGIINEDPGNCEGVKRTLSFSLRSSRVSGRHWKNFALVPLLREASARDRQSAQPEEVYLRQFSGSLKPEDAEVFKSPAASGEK

[12] = tested on: bovine articular cartilage explants; assay: IL-1 induced aggrecan degradation (GAG release, DMMB) in bovine articular cartilage explants; assay type: cell-based
Description: Articular cartilage explants isolated from newborn calves at slaughter were placed in culture, and aggrecan degradation was initiated through stimulation with IL-1. Since aggrecan degradation in this model is believed to be mediated by aggrecanase, TRPV4 channel receptor agonists that are active in the chondrocyte-based aggrecanase peptide assay (Example 11) may also be effective inhibitors in the cartilage explant assay, presumably by blocking aggrecanase production in these tissues.
At the end of the culture period, conditioned media were assayed for glycosaminoglycan (GAG) levels by colorimetric (DMMB) assay as a measure of aggrecan degradation. In bovine explants, IL-1 induced a profound increase in the amount of GAG released into the media during the 3 day culture. When cartilage was treated with IL-1 in combination with Formula IIc, there was a concentration-dependent reduction in GAG release as shown in Table 5.

TRPV4 channel receptor (Rattus norvegicus, UniProt Q9ERZ8), sequence (Q9ERZ8 whole entry): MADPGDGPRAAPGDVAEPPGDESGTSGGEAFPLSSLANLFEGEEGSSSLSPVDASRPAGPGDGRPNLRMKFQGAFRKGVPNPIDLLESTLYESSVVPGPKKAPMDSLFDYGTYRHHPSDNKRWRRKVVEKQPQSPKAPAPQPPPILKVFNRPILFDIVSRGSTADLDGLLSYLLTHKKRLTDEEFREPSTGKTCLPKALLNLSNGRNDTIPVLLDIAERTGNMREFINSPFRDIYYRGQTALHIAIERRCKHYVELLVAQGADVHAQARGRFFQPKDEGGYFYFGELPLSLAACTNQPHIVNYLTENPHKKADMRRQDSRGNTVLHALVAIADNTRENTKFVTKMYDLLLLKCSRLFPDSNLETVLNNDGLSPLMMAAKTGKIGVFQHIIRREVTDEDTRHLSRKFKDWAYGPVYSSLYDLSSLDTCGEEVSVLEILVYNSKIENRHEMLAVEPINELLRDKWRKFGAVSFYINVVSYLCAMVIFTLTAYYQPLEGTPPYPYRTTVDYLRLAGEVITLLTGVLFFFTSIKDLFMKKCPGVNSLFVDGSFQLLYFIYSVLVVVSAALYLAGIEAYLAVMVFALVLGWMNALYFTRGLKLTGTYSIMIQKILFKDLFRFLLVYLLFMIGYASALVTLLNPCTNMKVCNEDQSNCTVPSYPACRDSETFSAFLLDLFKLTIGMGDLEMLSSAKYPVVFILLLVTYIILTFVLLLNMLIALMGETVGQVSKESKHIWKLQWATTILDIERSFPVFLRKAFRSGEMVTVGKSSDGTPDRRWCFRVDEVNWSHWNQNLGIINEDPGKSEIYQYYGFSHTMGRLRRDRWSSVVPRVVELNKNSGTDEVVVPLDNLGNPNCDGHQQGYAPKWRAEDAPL
T1 sequence (Q9HBA0 whole entry): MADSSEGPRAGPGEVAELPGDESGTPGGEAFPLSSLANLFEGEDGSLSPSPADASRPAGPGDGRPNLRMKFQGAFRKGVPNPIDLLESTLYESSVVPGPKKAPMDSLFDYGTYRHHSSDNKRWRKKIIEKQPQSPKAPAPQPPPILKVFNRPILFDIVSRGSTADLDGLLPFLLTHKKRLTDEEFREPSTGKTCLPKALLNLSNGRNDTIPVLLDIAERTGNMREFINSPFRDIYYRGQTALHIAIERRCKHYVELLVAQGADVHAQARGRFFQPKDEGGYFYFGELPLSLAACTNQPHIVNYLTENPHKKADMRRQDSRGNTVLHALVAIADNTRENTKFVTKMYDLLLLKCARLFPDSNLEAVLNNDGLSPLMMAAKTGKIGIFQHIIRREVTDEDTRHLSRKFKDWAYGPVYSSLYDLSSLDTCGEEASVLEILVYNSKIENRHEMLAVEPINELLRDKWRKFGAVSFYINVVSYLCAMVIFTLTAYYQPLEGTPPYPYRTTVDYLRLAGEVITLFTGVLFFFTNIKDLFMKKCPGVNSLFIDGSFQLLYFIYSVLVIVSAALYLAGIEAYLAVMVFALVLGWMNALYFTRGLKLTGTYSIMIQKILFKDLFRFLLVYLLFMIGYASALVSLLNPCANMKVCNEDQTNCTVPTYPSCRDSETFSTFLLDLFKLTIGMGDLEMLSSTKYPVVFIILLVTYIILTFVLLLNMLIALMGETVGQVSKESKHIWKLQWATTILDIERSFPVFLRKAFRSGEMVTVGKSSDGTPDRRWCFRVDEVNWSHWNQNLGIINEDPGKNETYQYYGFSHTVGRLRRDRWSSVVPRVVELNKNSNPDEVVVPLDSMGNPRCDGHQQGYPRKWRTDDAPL

EC50 [1]: 370 nM
EC50 ([2]; RAC EC50, rat articular chondrocytes, N = 2): 140 nM
RAC % eff ([2]; rat articular chondrocytes, N = 2): 70%
IC50 [3]: 40 nM
BAC % eff ([4]; bovine articular chondrocytes): (94%)
EC50 ([4]; bovine articular chondrocytes, read-out: BAC EC50): 310 nM
EC50 ([5]; HAC EC50, human articular chondrocytes, N = 2): 250 nM
HAC % eff ([5]; human articular chondrocytes, N = 2): 127%
Structure (SMILES): CC(C)C[C@H](NC(=O)c1cc2ccccc2s1)C(=O)NCCCN(C)S(=O)(=O)c1ccc(Cl)cc1Cl [Formula IIIc, N-{(1S)-1-[({3-[[(2,4-dichlorophenyl)sulfonyl](methyl)amino]propyl}amino)carbonyl]-3-methylbutyl}-1-benzothiophene-2-carboxamide]

pEC50 TRPVR4 [6]: IA
Ca2+ influx ([2]; rat chondrocytes): no change in Ca^2+ influx
Ca2+ influx ([4]; bovine chondrocytes): no change in Ca^2+ influx
pEC50 empty vector [7]: IA
Ca2+ influx ([5]; human chondrocytes): no change in Ca^2+ influx
Structure (SMILES): COc1cc(CNC(=O)CCCC/C=C/C(C)C)ccc1O [capsaicin, reference compound]
pEC50 wild type [8]: IA

Structure (SMILES): N.N.N.N.N.N.N.N.N.N.N.N.N.N.[Cl-].[Cl-].[Cl-].[Cl-].[Cl-].[Cl-].[O-2].[O-2].[Ru+3].[Ru+3].[Ru+4] [Ruthenium Red, reference compound]
block of the response to 4α-PDD [9]: blocked
reversal of the effects of 4α-PDD on Ca2+ influx ([2]; rat chondrocytes): reduce Ca^2+ influx down to baseline levels
reversal of the effects of 4α-PDD on Ca2+ influx ([4]; bovine chondrocytes): reduce Ca^2+ influx down to baseline levels
reversal of the effects of 4α-PDD on Ca2+ influx ([5]; human chondrocytes): reduce Ca^2+ influx down to baseline levels

Structure (SMILES): CCCCCCCCCC(=O)O[C@@H]1[C@@H](C)[C@@]2(O)[C@@H](C=C(CO)C[C@@]3(O)C(=O)C(C)=C[C@@H]23)[C@@H]2C(C)(C)[C@]12OC(=O)CCCCCCCCC [Formula 4αPDD, 4α-phorbol-12,13-didecanoate]
potency and efficacy in activating TRPV4 channel receptors in cartilage explants [10]: greatly diminished
activation of VR1 [11]: did not activate VR1
pEC50 TRPVR1 ([11]; intracellular calcium, mean ± s.e.mean, n = 3-5): IA
intracellular calcium in HEK293-TRPV4 channel receptor cells [6]: increased intracellular calcium
pEC50 TRPVR4 [6]: 5.73 ± 0.06
Ca2+ influx ([2]; rat chondrocytes): stimulated Ca^2+ influx
Ca2+ influx ([4]; bovine chondrocytes): stimulated Ca^2+ influx
effect on intracellular calcium in cells transfected with empty vector [7]: without effect
pEC50 empty vector [7]: IA
effect on intracellular calcium in wild type HEK293 cells [8]: without effect
pEC50 wild type [8]: IA
Ca2+ influx ([5]; human chondrocytes): stimulated Ca^2+ influx

Structure (SMILES): CC(C)C[C@H](NC(=O)c1cc2ccccc2s1)C(=O)N[C@@H]1CCCN(S(=O)(=O)c2ccc(Cl)cc2)CC1=O [Formula IIc, N-{(1S)-1-[({(4R)-1-[(4-chlorophenyl)sulfonyl]-3-oxohexahydro-1H-azepin-4-yl}amino)carbonyl]-3-methylbutyl}-1-benzothiophene-2-carboxamide]
GAG release Mean ± SEM ([12]; 0.01 μM, IL-1 100 ng/ml, 3 days): 62 ± 4.82 μg/explant
GAG release Mean ± SEM ([12]; 0.03 μM, IL-1 100 ng/ml, 3 days): 59 ± 4.62 μg/explant
GAG release Mean ± SEM ([12]; 0.10 μM, IL-1 100 ng/ml, 3 days): 43 ± 3.18 μg/explant
GAG release Mean ± SEM ([12]; 1.00 μM, IL-1 100 ng/ml, 3 days): 14 ± 1.44 μg/explant
inhibition at 0.01 µM ([12]; Bos taurus, 72 h, 0.01 μM, IL-1 100 ng/ml, 3 days): -2%
inhibition at 0.03 µM ([12]; Bos taurus, 72 h, 0.03 μM, IL-1 100 ng/ml, 3 days): 4%
inhibition at 0.1 µM ([12]; Bos taurus, 72 h, 0.10 μM, IL-1 100 ng/ml, 3 days): 38%
inhibition at 1 µM ([12]; Bos taurus, 72 h, 1.00 μM, IL-1 100 ng/ml, 3 days): 98%
inhibition of aggrecan degradation ([12]; IL-1 stimulation for 12 or 21 days): Significant inhibition
